Values of other authors, collected in US7495029B2, “Prodrugs of (2R)-2-propyloctanoic acid for the treatment of stroke” (Merck & Co., Inc, priority 2004, dated 2009).

What was measured:
[1] = tested on: gerbils subjected to a transient global ischemia event; settings: Jalil et al, Brain Research 2002
mice = settings: Tunctan et al, Pharmacological Res 2003
rat stroke models = settings: Kogure et al, Life Sciences 2002
lipid peroxidation = settings: in vitro; Kogure et al, Life Sciences 2002
[2] = tested on: vascular endothelial cell; settings: in vitro; Kogure et al, Life Sciences 2002

Compound | neuroprotection against hippocampal damage [1] | endotoxin-induced mortality (mice) | development of cerebral edema, cerebral infarction, neurological symptoms and delayed neuronal death (rat stroke models) | lipid peroxidation (lipid peroxidation) | vascular endothelial cell damage [2]
CC1(C)OC(=O)C(c2cccc(F)c2)=C1c1ccc(S(C)(=O)=O)cc1 [DFU] | neuroprotective against hippocampal damage | dose dependently reduce endotoxin-induced mortality |  |  | 
Edaravone |  |  | inhibit the development of cerebral edema, cerebral infarction, neurological symptoms and delayed neuronal death | inhibit lipid peroxidation | inhibit
